Test results as given in patent publication US6989245B2, “Screening, diagnostic and therapeutic methods relating to RIZ” (The Burnham Institute, priority 2001, dated 2006).

Legend:
[1] = system: uterus of OVXed mice; experiment: uterine growth in response to E2 in ovariectomized (OVXed) mice; format: in vivo; details: E2 0.8 ng/g/day S.C. three days
Method: (§1) To investigate E2-mediated increments in proliferation and hyperemia of uteri and changes in the cellular organization of the vaginal epithelium (Xu et al., Science 279:1922-1925 (1998)), 8-week old female RIZ−/− and RIZ+/+mice were ovariectomized (OVXed). At day 15-17 following OVX, mice were treated with S.C. injections of E2 (0.8 ng/g/day; Sigma) or with the vehicle (0.1 ml corn oil) alone for three days. The mice were then sacrificed at day 18 and the uterine wet weight was measured, and vaginal tissue was collected. The tissues were processed as above and vaginal specimens were stained with routine H & E and uterine specimens for PR expression. The thickness of the vaginal epithelium and the cornified layer was photographed and measured as described in FIG. 4 using the Spot 3.2.4. software (Diagnostic Instruments).
The RIZ1 mutant mice are deficient in RIZ1, but not RIZ2, and therefore lack specifically any PR-domain related functions of the gene (Steele-Perkins et al., Genes Dev. 15:2250-2262 (2001)). These animals are viable and fertile and show no gross developmental defects (Steele-Perkins et al., supra (2001)). To determine the physiological role of RIZ1 in steroid hormone action, uterine growth in response to E2 was first examined in ovariectomized (OVXed) mice (Lubahn et al., Proc. Natl. Acad. Sci. USA 90:11162-11166 (1993)). Wild-type or heterozygous RIZ1 mutant mice responded to E2 treatment with a 5.3±0.5 and 5.4±0.4 fold increase in uterine wet weight. […] Uterine response to mechanical traumatization (decidual stimulation) is mainly a progesterone receptor-dependent process (Lydon et al., Genes Dev. 9:2266-2278 (1995)). OVXed mice were treated with a high dose of progesterone and a low dose of E2, followed by mechanical stimulation of the left uterine horn of each animal. The unstimulated […] uterine horn served as a control.

[2] = system: progesterone receptor gene expression in luminal epithelial cells of the uterus; experiment: E2 regulation of uterine progesterone receptor expression (immunohistochemistry); format: in vivo, mice
Source text: For RIZ staining, the RIZ rabbit antiserum KG7.1S (Buyse et al., Proc. Natl. Acad. Sci. U.S.A. 92:4467-4471 (1995)) was used at an optimal dilution of 1/200. For ERα staining the polyclonal rabbit anti-ERα antibody (sc-542 Santa Cruz) was used at a dilution of 1/250, and for PR staining the polyclonal rabbit anti-PR antibody (A0098 DAKO) was used at a dilution of 1/100, essentially as described (Tibbetts et al., Biol. Reprod. 59:1143-1152 (1998)). Tissues were fixed in Bouin's solution and processed by routine methods for embeddement in paraffin and sectioning (5 μm). […]
as §1, with “At day 15-17 following OVX, mice were treated with S.C. injections of E2 (0.8 ng/g/day; Sigma) or with the vehicle (0.1 ml corn oil) alone for three days.” left out, “The tissues were processed as above and vaginal specimens were stained with routine H & E and uterine specimens for PR expression.” left out
The epithelial and stromal compartments of the uterus were then analyzed for E2-induced changes in progesterone receptor expression. […]

[3] = system: RIZ1 HMT activity; experiment: HMT activity of RIZ1 immunoprecipitated from E2 treated MCF-7 cells; format: cell-based, human; details: RIZ1 immunoprecipitates
Method: (§2) Methylation reactions (30-40 μl) contained 20 mM Tris-HCl (pH8.0), 0.2 M NaCl, 0.4 mM EDTA, affinity-purified GST-RIZ1 or immunoprecipitation products, free histones (20-40 μg) purified from acid extraction of human cancer cells (A549 or U2OS), and 3 μl (1.65 μCi and 21 pmole)[methyl-^3H]-adenosyl-methionine (Amersham-Pharmacia). Nuclear extracts were prepared according to standard procedures and used for immunoprecipitation. Antisera used for immunoprecipitation were anti-KG7.1S and preimmune serum as described previously (Buyse et al., Proc. Natl. Acad. Sci. U.S.A. 92:4467-4471 (1995)). Similar HMT activity has also been observed with immunoprecipitates using a different serum (data not shown), 1715, which was described previously (Steele-Perkins et al., Genes Dev. 15:2250-2262 (2001)). Various amount of SAH (Sigma) were added in some methylation reactions.
To help understand this apparent paradox, the estrogen effects on RIZ1 HMT activity were examined. Nuclear extracts from control and E2 treated MCF-7 cells were immunoprecipitated by RIZ1 serum anti-KG7.1S or preimmune serum. As expected, HMT activity (labeling of H3 and H1) was detected in the immunoprecipitates of RIZ1 serum but not preimmune serum (FIG. 7A, lanes 1 and 3). […] Thus, E2 appears to regulate RIZ1 HMT activity in a selective way, inhibiting specifically methylation of H3 but not H1.

[4] = system: histone H1 phosphorylation in MCF7 cells; experiment: H1 phosphorylation in MCF7 cells by western blot; format: cell-based, human; details: E2 48 hr
Method: MCF-7 and T47-D breast cancer cells were grown in 15 cm dishes in DMEM with 5% FCS, and 2 mM L-glutamine. Subconfluent cells (4×10^6) were then cultured in DMEM without phenol red, serum or hormones for an additional 3 days, during which media was changed twice daily. Cells were incubated for 24 h with or without hormones (50 nM for E2 and 100 nM for R5020) and infected with an adenovirus vector containing RIZ1 (AdRIZ1; at a concentration of 1×10^10 viral particles/15 cm dish) or the empty vector (AdNull) (He et al., Cancer Res. 58:4238-4244 (1998)). Cells were then grown for an additional 48 h in DMEM without phenol red supplemented with 5% charcoal-treated FCS (Omega Scientific). Cells were harvested and proceeded to immunoprecipitation and immunoblot essentially as described (Buyse et al., Proc. Natl. Acad. Sci. U.S.A. 92:4467-4471 (1995); Liu et al., J. Biol. Chem. 272:2984-2991 (1997)). […]
Because H1 phosphorylation has been linked with transcriptional activation (Bhattacharjee et al., Mol. Cell. Biol. 21:5417-5425 (2001); Dou and Gorovsky, Mol. Cell. 6:225-231 (2000)), it was next asked whether E2 or RIZ1 can enhance H1 phosphorylation. Histones were extracted from MCF7 cells infected with AdRIZ1 or control virus and analyzed by western blot analysis using antibodies that recognize specifically phosphorylated H1.

[5] = molecular target: T1, RIZ1 methyltransferase (Homo sapiens, UniProt Q13029, DUP703-703); experiment: in vitro methylation of histones by immunoprecipitated RIZ1; format: biochemical; details: 0.42 μM of 3H-SAM
T1 construct: Enzyme activity of full-length RIZ1 protein from mammalian cells was next assayed; expressed in transfected cells; host or cells: U2OS human osteosarcoma cells infected with AdRIZ1 adenovirus
Method: as §2
In view of RIZ1's role in tumor suppression, it was determined whether S-adenosylhomocysteine (SAH), an analog inhibitor of SAM-dependent methyltransferases whose abnormal accumulation is linked with carcinogenesis, can inhibit RIZ1 enzyme activities. The effect of SAH on the in vitro methylation of histones by immunoprecipitated RIZ1 was tested. A methylation assay was performed in the presence of 0, 0.5 and 5 μM of SAH and 0.42 μM of 3H-SAM.

[6] = molecular target: protein methyltransferase (PMT); details: universal inhibitor of PMT; cited from earlier work
[7] = system: RIZ1 HMT activity; experiment: HMT activity of RIZ1 immunoprecipitates from TPA treated U937 cells; format: cell-based, human; details: 24 hr following TPA treatment
Method: as §2
To further study the contrasting behavior of H1 and H3 methylation, regulation of RIZ1 HMT activity by cell growth was examined, using 12-O-tetradecanoyl-phorbol-13-acetate (TPA) treatment of U937 myeloid leukemic cells as a model system. U937 cells undergo growth arrest and terminal differentiation into monocytes when exposed to TPA. This cell model was selected for study because it has been shown in these cells that RIZ gene expression is only marginally regulated by TPA. […]

[8] = system: prostate of orchiectomized male mice; experiment: prostate growth in orchiectomized male mice treated with testosterone; format: in vivo; details: testosterone 3 mg/kg/day S.C. 7 days
Method: In order to evaluate the response to testosterone, twelve week old male mice were orchiectomized (ORCed) and testicles were wet weighed (Xu et al., Science 279:1922-1925 (1998)). Nine days following ORC, mice were treated during days 9-15 with S.C. injections of testosterone (3 mg/kg/day, Sigma) or vehicle alone (0.1 ml corn oil). On day 16, mice were sacrificed and the prostate and the pars prostate of the urethra (for technical reasons) were removed and wet weighed.
Eight days after orchiectomization, prostates in both wild-type and mutant animals regressed. Injection of testosterone for 7 days stimulated prostate growth in wild-type animals as well as in RIZ1 null animals. Wild-type and RIZ1 null mutant animals had similar ratios of the weight of prostate and urethra to body weight (1.19±0.03 vs. 1.14±0.03; n=10 and 9 mice for +/+ and −/−, respectively; p=0.23). They also had similar ratios of testis weight to body weight (7.7±0.4 vs. 7.4±0.4; n=14 for both genotypes; p=0.58).

T1 sequence (Q13029 with tags, fused parts or gaps DUP703-703): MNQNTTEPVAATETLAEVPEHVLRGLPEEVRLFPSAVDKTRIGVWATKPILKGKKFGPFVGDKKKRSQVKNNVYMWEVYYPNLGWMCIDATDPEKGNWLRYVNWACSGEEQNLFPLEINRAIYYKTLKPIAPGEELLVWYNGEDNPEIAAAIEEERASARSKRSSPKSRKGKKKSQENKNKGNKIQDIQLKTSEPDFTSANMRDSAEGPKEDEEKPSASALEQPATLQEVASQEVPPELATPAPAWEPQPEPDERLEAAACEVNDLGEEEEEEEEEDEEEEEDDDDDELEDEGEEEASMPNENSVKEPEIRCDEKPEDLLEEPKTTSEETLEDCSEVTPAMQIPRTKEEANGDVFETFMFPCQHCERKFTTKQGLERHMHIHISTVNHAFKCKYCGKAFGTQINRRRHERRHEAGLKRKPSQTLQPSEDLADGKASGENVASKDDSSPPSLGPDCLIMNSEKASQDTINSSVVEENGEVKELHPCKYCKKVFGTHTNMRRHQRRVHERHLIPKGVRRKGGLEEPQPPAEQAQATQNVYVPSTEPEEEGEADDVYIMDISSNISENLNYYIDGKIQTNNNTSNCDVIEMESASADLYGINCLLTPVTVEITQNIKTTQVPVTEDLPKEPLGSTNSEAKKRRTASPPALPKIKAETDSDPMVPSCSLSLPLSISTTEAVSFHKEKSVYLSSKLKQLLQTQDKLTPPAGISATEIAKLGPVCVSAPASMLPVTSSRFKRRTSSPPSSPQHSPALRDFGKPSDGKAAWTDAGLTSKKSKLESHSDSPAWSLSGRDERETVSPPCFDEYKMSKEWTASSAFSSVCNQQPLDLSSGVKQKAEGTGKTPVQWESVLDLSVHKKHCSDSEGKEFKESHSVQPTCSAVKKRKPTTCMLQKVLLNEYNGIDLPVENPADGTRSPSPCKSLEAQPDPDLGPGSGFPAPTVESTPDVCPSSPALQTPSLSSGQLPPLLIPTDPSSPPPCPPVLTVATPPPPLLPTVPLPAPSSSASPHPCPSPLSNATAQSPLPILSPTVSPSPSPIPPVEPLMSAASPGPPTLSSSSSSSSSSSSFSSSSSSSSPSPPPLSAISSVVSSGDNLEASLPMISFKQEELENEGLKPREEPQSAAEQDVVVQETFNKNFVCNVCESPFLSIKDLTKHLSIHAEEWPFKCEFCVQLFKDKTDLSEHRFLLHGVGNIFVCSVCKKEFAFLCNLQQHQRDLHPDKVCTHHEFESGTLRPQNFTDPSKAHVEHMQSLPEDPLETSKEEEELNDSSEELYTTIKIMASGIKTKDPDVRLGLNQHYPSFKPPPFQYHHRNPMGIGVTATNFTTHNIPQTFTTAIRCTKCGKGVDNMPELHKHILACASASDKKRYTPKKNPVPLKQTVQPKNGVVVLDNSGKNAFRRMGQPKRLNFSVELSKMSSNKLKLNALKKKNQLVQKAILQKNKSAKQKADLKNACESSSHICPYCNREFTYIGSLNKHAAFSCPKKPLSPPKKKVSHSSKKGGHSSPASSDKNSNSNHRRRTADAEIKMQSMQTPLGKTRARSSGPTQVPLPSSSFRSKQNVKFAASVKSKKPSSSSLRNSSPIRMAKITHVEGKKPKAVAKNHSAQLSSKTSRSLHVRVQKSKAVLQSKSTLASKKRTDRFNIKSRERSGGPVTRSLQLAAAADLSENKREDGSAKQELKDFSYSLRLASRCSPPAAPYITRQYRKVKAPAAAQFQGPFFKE

In the case of `C[C@]12CC[C@@H]3c4ccc(O)cc4CC[C@H]3[C@@H]1CC[C@@H]2O` [E2, estradiol], the “fold increase in uterine wet weight” value ([1]; heterozygous RIZ1 mutant OVXed mice) is reported as 5.4±0.4 fold, the “fold increase in uterine wet weight” value ([1]; homozygous RIZ1 mutant OVXed mice) is reported as “about 3.7±0.4 fold” and the “fold increase in uterine wet weight” value ([1]; wild-type OVXed mice) is reported as 5.3±0.5 fold. The “repression of progesterone receptor gene expression” value ([2]; in the absence of RIZ1) was 2 fold, the “repression of progesterone receptor gene expression” value ([2]; in the presence of RIZ1) was ~20 fold and the “H1 methylation by RIZ1” value [3] was “maintained or slightly enhanced”. For the same compound, the “H3 methylation by RIZ1” value [3] was “decreased” and the H1 phosphorylation [4] was “increased”.

In the case of `Nc1ncnc2c1ncn2[C@@H]1O[C@H](CSCC[C@H](N)C(=O)O)[C@@H](O)[C@H]1O` [SAH, S-adenosylhomocysteine], the “Histone methylation by RIZ1” value ([5]; 0.5 μM of SAH) is given as “partially inhibited”, the “Histone methylation by RIZ1” value ([5]; 5 μM of SAH) is given as “completely inhibited” and the Ki [6] is given as 5 to 12 µM.

For `CCCCCCCCCCCCCC(=O)O[C@@H]1[C@@H](C)[C@@]2(O)[C@@H](C=C(CO)C[C@]3(O)C(=O)C(C)=C[C@@H]23)[C@@H]2C(C)(C)[C@]12OC(C)=O` [TPA, 12-O-tetradecanoyl-phorbol-13-acetate], the “H1 methylation by RIZ1” value [7] was “slightly decreased” and the “H3 methylation by RIZ1” value [7] was “increased”.

In the case of `C[C@]12CC[C@H]3[C@@H](CCC4=CC(=O)CC[C@@]43C)[C@@H]1CC[C@@H]2O` [testosterone], the “ratio of the weight of prostate and urethra to body weight” value ([8]; RIZ1 null mutant orchiectomized mice, n=9) is reported as 1.14±0.03 and the “ratio of the weight of prostate and urethra to body weight” value ([8]; wild-type orchiectomized mice, n=10) is reported as 1.19±0.03.
